Measured values published in US7176216B2, “7-phenylpyrazolopyridine compounds” (Eisai Co., Ltd., priority 2002, dated 2007).
Read-outs that look alike come from different tables or passages of the source.

Experiments:
[1] = system: CRF-induced cAMP production in AtT-20 cells; assay: cAMP production inhibition experiment using AtT-20 cells; format: cell-based; conditions: Mus musculus, AtT20, CRF 30 nM
Method: <cAMP Production Inhibition Experiment Using AtT-20 Cells>
AtT-20 cell is a cell-line derived from mouse pituitary gland tumor, which is known to respond to corticotropin releasing hormone (CRF), to produce cAMP by activation of the intracellular adenylate cyclase system, and to release adrenocorticotropic hormone (ACTH) (Biochem. Biophys. Res. Com., 106, 1364–1371, 1982). In this experiment, AtT-20 cells (1×10^5) were suspended in D-MEM (0.1% FBS) and seeded in a 96-well plate, and then 1 mM (final concentration) phosphodiesterase inhibitor (IBMX, Calbiochem) was added prior to incubation for 30 minutes at 37° C. The diluted test compound solution was then added prior to incubation for 30 minutes at 37° C., and CRF (final concentration: 30 nM) was added prior to further incubation for 30 minutes at 37° C. The cells were collected by centrifugation (1,800 rpm (630×g), 5 minutes), and then lysed with lysis buffer (0.2% dodecyltrimethylammmonium bromide), and the intracellular cAMP production was assayed by HTRF method. cAMP kit HTRF (Nihon Schering) was used for the cAMP assay.
(2) Calculation of cAMP Production Inhibitory Activity;
The cAMP production of each sample was represented as a percentage (% of control), with the CRF (final concentration: 30 nM)-added cells defined as 100% (control).

CYP3A4 = conditions: human, hepatocytes, 48 h
Method: Evaluation of Drug Metabolizing Enzyme (CYP3A4) Inducibility Using Cryopreserved Human Hepatocyte
Cryopreserved hepatocytes (In Vitro Technology) were rapidly thawed while stirring at 37° C., and then ice-cooled William's Medium E (10% FBS, +PSG) was slowly added to the cells prior to centrifugation at 500 rpm for 5 minutes. After removing the supernatant, the obtained hepatocytes were diluted with ice-cooled William's Medium E to a concentration of 5×10^5 cells/mL, seeded on a 48-well collagen coated plate (BD Biosciences) at 1×10^5 cells/cm^2 and incubated for about 24 hours at 37° C., 5% CO2, after which the medium was changed with Hepato-STIM™ (BD Biosciences) (+EGF, PSG, −FBS) and culture was maintained for another 24 hours under conditions of 37° C., 5% CO2. At approximately 48 hours after the cell seeding, the test compound or rifampicin (SIGMA, positive control) in the form of a diluted solution (using Hepato-STIM™ (+EGF, PSG, −FBS)) was added, hepatocyte were incubated for about 24 hours under conditions of 37° C., 5% CO2, and the culture medium was changed with medium containing a freshly prepared dilution of the test compound or rifampicin prior to further incubation for 24 hours under the same conditions. After incubation, the cells were washed once with PBS, and the total RNA was extracted using a Qiagen RNeasy Mini kit (Qiagen). The cDNA was synthesized by reverse-transcription of extracted using TaqMan Reverse Transcription Reagents (Applied Biosystems). The reverse transcription reaction was carried out using oligo dT as primer, with treatment at 25° C. for 10 minutes followed by treatment at 48° C. for 60 minutes, after which the reverse transcriptase was inactivated by treatment at 95° C. for 10 minutes. The obtained cDNA was supplied to a PCR using a Gene Amp PCR system 9700. The obtained cDNA was quantitated using an SYBR Green PCR Core Reagents kit (Applied Biosystems), and the human CYP3A4 and GAPDH mRNA was quantitated using an ABI7700 (Applied Biosystems). The abbreviations used in the test example are explained below. • FBS: Fetal Bovine Serum • PSG: Penicillin (100 U/ml), Streptomycin (100 μg/ml), Glutamine (2 mM) • EGF: Epidermal Growth Factor • GAPDH: Glyceraldehyde-3-Phosphate Dehydrogenase
(2) Calculation of CYP3A4 Inducibility:
Next, for comparison of each test run, the differences between the value of the CYP3A4 mRNA amount divided by the GAPDH mRNA amount with addition of the test compound at various concentrations and with addition of the negative control were calculated as percentages, with 100% being defined as the difference between the values of the CYP3A4 mRNA amount divided by the GAPDH mRNA amount for the positive control and negative control, to determine the inducibility of each test compound.

human CRFR1 = target: T1, human CRFR1 (Homo sapiens, UniProt P34998); assay: CRFR binding experiment (125I-CRF, SPA, membrane fraction of CRFR1-expressing HEK293 cells); conditions: 100 pM 125I-CRF, read-out: CRF1 receptor binding affinity IC50
T1 construct: The full-length CRFR1 gene was obtained by PCR using human brain cDNA library; expressed in transfected cells
T1 sequence (P34998 24-415): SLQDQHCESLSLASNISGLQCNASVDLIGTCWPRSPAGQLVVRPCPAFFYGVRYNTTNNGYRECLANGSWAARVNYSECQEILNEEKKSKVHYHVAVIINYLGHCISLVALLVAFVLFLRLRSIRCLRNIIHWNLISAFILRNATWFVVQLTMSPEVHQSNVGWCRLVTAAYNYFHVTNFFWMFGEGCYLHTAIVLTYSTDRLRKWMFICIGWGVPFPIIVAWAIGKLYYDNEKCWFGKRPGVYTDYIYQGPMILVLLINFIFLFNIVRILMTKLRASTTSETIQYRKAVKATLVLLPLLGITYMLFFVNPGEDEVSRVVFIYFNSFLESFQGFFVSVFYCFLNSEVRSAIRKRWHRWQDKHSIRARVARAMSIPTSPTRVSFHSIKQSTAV
Method: <CRFR Binding Experiment>
The full-length CRFR1 gene was obtained by PCR using human brain cDNA library (QuickClone™ Clontech). […] The CRFR1 expression vector was introduced into HEK293 cell, and the resistant cells which proliferated in culture medium containing G418 (1 mg/ml) were cloned by the limiting dilution method. […] And the selected cells were used for the experiments.

| Compound | IC50 [1] [nM] | % of Positive Control (CYP3A4 inducibility) (CYP3A4; 0.03 μM) [%] | % of Positive Control (CYP3A4 inducibility) (CYP3A4; 0.1 μM) [%] | % of Positive Control (CYP3A4 inducibility) (CYP3A4; 0.3 μM) [%] | % of Positive Control (CYP3A4 inducibility) (CYP3A4; 1 μM) [%] | inducibility (CYP3A4), positive control defined as 100% (CYP3A4; 1 μM) [%] | % of Positive Control (CYP3A4 inducibility) (CYP3A4; 3 μM) [%] | % of Positive Control (CYP3A4 inducibility) (CYP3A4; 10 μM) [%] | IC50 (human CRFR1) [nM] |
| --- | --- | --- | --- | --- | --- | --- | --- | --- | --- |
| CCOCc1cc(OC)c(-c2cccc3c(N(CC4CCOCC4)CC4CC4)c(CC)nn23)c(OC)c1 [Example 3, N-Cyclopropylmethyl-N-7-[4-(ethoxymethyl)-2,6-dimethoxyphenyl]-2-ethylpyrazolo[1,5-a]pyridin-3-yl-N-tetrahydro-2H-4-pyranylmethylamine] | 5.1 | 3 | 3 | 7 | 25 | ≤ 40 | 23 | 34 | – |
| CCc1nn2c(-c3c(OC)cc(COC)cc3OC)cccc2c1N(CC1CCOCC1)CC1CC1 [Example 1, N-Cyclopropylmethyl-N-7-[2,6-dimethoxy-4-(methoxymethyl)phenyl]-2-ethylpyrazolo[1,5-a]pyridin-3-yl-N-tetrahydro-2H-4-pyranylmethylamine] | 4 | 6 | 7 | 12 | 20 | ≤ 40 | 36 | 65 | – |
| COCc1cc(OC)c(-c2cccc3c(N(CC4CC4)CC4CCOC4)c(SC)nn23)c(OC)c1 (stereo not drawn) [Example 60, N-Cyclopropylmethyl-N-[7-[2,6-dimethoxy-4-(methoxymethyl)phenyl]-2-(methylsulfanyl)pyrazolo[1,5-a]pyridin-3-yl]-N-tetrahydro-3-furanylmethylamine] | 3.5 | – | – | – | – | – | – | – | 30 |
| COCc1cc(OC)c(-c2cccc3c(N(CC4CCOCC4)CC4CC4)c(SC)nn23)c(OC)c1 [Example 59, N-Cyclopropylmethyl-N-[7-[2,6-dimethoxy-4-(methoxymethyl)phenyl]-2-(methylsulfanyl)pyrazolo[1,5-a]pyridin-3-yl]-N-tetrahydro-2H-4-pyranylmethylamine] | 3.5 | 2 | 3 | 11 | 25 | ≤ 40 | 49 | 59 | – |
| CCCN(CC1CCOCC1)c1c(CC)nn2c(-c3c(OC)cc(COCC)cc3OC)cccc12 [Example 23, N-7-[4-(Ethoxymethyl)-2,6-dimethoxyphenyl]-2-ethylpyrazolo[1,5-a]pyridin-3-yl-N-propyl-N-tetrahydro-2H-4-pyranylmethylamine] | 6 | – | – | – | – | – | – | – | 50 |
| COCc1cc(OC)c(-c2cccc3c(N(CC4CCOCC4)CC4CC4)c(OC)nn23)c(OC)c1 [Example 47, N-Cyclopropylmethyl-N-7-[2,6-dimethoxy-4-(methoxymethyl)phenyl]-2-methoxypyrazolo[1,5-a]pyridin-3-yl-N-tetrahydro-2H-4-pyranylmethylamine] | 50 | – | – | – | – | – | – | – | – |
| CCCN(CC1CCOCC1)c1c(CC)nn2c(-c3c(OC)cc(COC)cc3OC)cccc12 [Example 13, N-7-[2,6-Dimethoxy-4-(methoxymethyl)phenyl]-2-ethylpyrazolo[1,5-a]pyridin-3-yl-N-propyl-N-tetrahydro-2H-4-pyranylmethylamine] | 11 | – | – | – | – | – | – | – | – |
